Measurements published in PubChem BioAssay (NCI).
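Results reflect a 48-hour exposure of cells in 96-well plates to compound at five concentrations. GI50 is the concentration that inhibits growth by half. TGI denotes the concentration required for complete inhibition of growth.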

How the values were obtained:
Test in all cases: NCI tumour cell line growth inhibition, 48 h
SNB-19 CNS = tested on: SNB-19 CNS
HOP-62 NSCLC = tested on: HOP-62 NSCLC
KM12 colon = tested on: KM12 colon
UACC-257 melanoma = tested on: UACC-257 melanoma
HL-60(TB) leukemia = tested on: HL-60(TB) leukemia
NCI-H522 lung = tested on: NCI-H522 lung
UACC-62 melanoma = tested on: UACC-62 melanoma
SF-268 CNS = tested on: SF-268 CNS
A498 renal = tested on: A498 renal
HCT-15 colon = tested on: HCT-15 colon
SW-620 colon = tested on: SW-620 colon
RPMI-8226 leukemia = tested on: RPMI-8226 leukemia
NCI-H226 lung = tested on: NCI-H226 lung
SNB-75 CNS = tested on: SNB-75 CNS
RXF 393 renal = tested on: RXF 393 renal
SK-MEL-2 melanoma = tested on: SK-MEL-2 melanoma
MOLT-4 leukemia = tested on: MOLT-4 leukemia
MCF7 breast = tested on: MCF7 breast
UO-31 renal = tested on: UO-31 renal
CCRF-CEM leukemia = tested on: CCRF-CEM leukemia
NCI-H460 lung = tested on: NCI-H460 lung
MDA-MB-435 = tested on: MDA-MB-435
CAKI-1 renal = tested on: CAKI-1 renal
COLO 205 colon = tested on: COLO 205 colon
MALME-3M melanoma = tested on: MALME-3M melanoma
DU-145 prostate = tested on: DU-145 prostate
HCC-2998 colon = tested on: HCC-2998 colon
HOP-92 NSCLC = tested on: HOP-92 NSCLC
OVCAR-3 ovarian = tested on: OVCAR-3 ovarian

Compound `O=C(c1ccc(O)cc1)C1[C@H](c2ccc(Br)cc2)[C@@H](c2ccccc2)NC12C(=O)Nc1ccccc12` (stereo partly drawn) has a GI50 (SNB-19 CNS) of 5.92 µM, a TGI (SNB-19 CNS) of 11.1 µM and a GI50 (HOP-62 NSCLC) of 5.88 µM. For the same compound, the TGI (HOP-62 NSCLC) was 11.5 µM, the GI50 (KM12 colon) was 6.31 µM and the TGI (KM12 colon) was 12.6 µM. For the same compound, the GI50 (UACC-257 melanoma) was 6.1 µM, the TGI (UACC-257 melanoma) was 11.8 µM and the GI50 (HL-60(TB) leukemia) was 7.46 µM. It also gave a TGI (HL-60(TB) leukemia) of 18.9 µM, a GI50 (NCI-H522 lung) of 5.82 µM and a TGI (NCI-H522 lung) of 11.7 µM. For the same compound, the GI50 (UACC-62 melanoma) was 5.13 µM, the TGI (UACC-62 melanoma) was 10.1 µM and the GI50 (SF-268 CNS) was 5.73 µM. The TGI (SF-268 CNS) was 12.5 µM, the GI50 (A498 renal) was 5.83 µM and the TGI (A498 renal) was 11.3 µM. It also gave a GI50 (HCT-15 colon) of 6.17 µM, a TGI (HCT-15 colon) of 13 µM and a GI50 (SW-620 colon) of 6.63 µM. The TGI (SW-620 colon) was 12.9 µM, the GI50 (RPMI-8226 leukemia) was 7.97 µM and the TGI (RPMI-8226 leukemia) was 25.2 µM. For the same compound, the GI50 (NCI-H226 lung) was 5.31 µM, the TGI (NCI-H226 lung) was 11 µM and the GI50 (SNB-75 CNS) was 4.21 µM. The TGI (SNB-75 CNS) was 11.7 µM, the GI50 (RXF 393 renal) was 5.29 µM and the TGI (RXF 393 renal) was 10.5 µM. The GI50 (SK-MEL-2 melanoma) was 6.14 µM, the TGI (SK-MEL-2 melanoma) was 11.5 µM and the GI50 (MOLT-4 leukemia) was 3.99 µM. It also gave a TGI (MOLT-4 leukemia) of 13.4 µM, a GI50 (MCF7 breast) of 6.41 µM and a TGI (MCF7 breast) of 15.4 µM. It also gave a GI50 (UO-31 renal) of 3.99 µM, a TGI (UO-31 renal) of 8.53 µM and a GI50 (CCRF-CEM leukemia) of 7.07 µM. The TGI (CCRF-CEM leukemia) was 16.1 µM, the GI50 (NCI-H460 lung) was 6.08 µM and the TGI (NCI-H460 lung) was 11.9 µM. The GI50 (MDA-MB-435) was 6.53 µM, the TGI (MDA-MB-435) was 12.3 µM and the GI50 (CAKI-1 renal) was 4.67 µM. It also gave a TGI (CAKI-1 renal) of 9.8 µM, a GI50 (COLO 205 colon) of 6.88 µM and a TGI (COLO 205 colon) of 14.1 µM. For the same compound, the GI50 (MALME-3M melanoma) was 5.75 µM, the TGI (MALME-3M melanoma) was 10.9 µM and the GI50 (DU-145 prostate) was 6.85 µM. The TGI (DU-145 prostate) was 12.9 µM, the GI50 (HCC-2998 colon) was 5.87 µM and the TGI (HCC-2998 colon) was 11.4 µM. The GI50 (HOP-92 NSCLC) was 5.36 µM, the TGI (HOP-92 NSCLC) was 10.9 µM and the GI50 (OVCAR-3 ovarian) was 6.51 µM. For the same compound, the TGI (OVCAR-3 ovarian) was 12 µM.
